Source: patent EP0729957A1, “PYRIDINE COMPOUND AND MEDICINAL USE THEREOF” (YOSHITOMI PHARMACEUTICAL INDUSTRIES, LTD., priority 1993, dated 1995)
Where a name gives a salt, the structure may show the parent alone. Read-outs that look alike come from different tables or passages of the source.

Tests used:
gastric acid secretion = test: Action on gastric acid secretion of rats subjected to gastroperfusion (histamine-induced); assay type: in vivo; settings: 3 mg/kg i.v., 5 minutes before histamine hydrochloride (1 mg/kg i.v.); urethane-anesthetized Wistar rats
Protocol: Experimental Example 2: Action on gastric acid secretion of rats subjected to gastroperfusion
The experiment was done according to the method of Ghosh et al, Br. J. Pharmacol. 13, p 54 (1958). Wistar rats were fasted for 20 hours and anesthetized with urethane (1.5 g/kg, subcutaneous). A polyethylene tube for injection and discharge for gastroperfusion was attached to the rats. Gastroperfusion was performed using physiological saline (37°C) at a speed of 7 ml/min and the perfusate was recovered at 10-min intervals. Histamine hydrochloride (1 mg/kg) was intravenously administered at 1-hr intervals to induce secretion of gastric acid. A test solution containing the test compound was intravenously administered 5 minutes before the histamine hydrochloride administration. The acidity of the gastric acid was titrated up to pH 7.0 with an automatic titrator and percent suppression of gastric acid secretion by the test compound was determined.

Helicobacter pylori = test: Antibacterial activity (in vitro) against Helicobacter pylori, agar dilution MIC; assay type: cell-based; settings: clinical isolates (18 strains), agar plate, 37°C, 8% CO2, 3-4 days; for MIC50: minimum concentration necessary for inhibiting growth by 50%; for MIC90: minimum concentration necessary for inhibiting growth by 90%
[1] = Helicobacter pylori, read-out: MIC50
[2] = Helicobacter pylori, read-out: MIC90

| MIC50 (Helicobacter pylori; [1]) [µg/mL] | MIC90 (Helicobacter pylori; [2]) [µg/mL] | Compound | Suppression (%) (gastric acid secretion) | other results |
| --- | --- | --- | --- | --- |
| – | – | 2-((3-methyl-4-(2-(2-methoxpolyethoxy)ethylthio)-2-pyridyl)methylsulfinyl)-1H-benzimidazole [Example 25] | 100 | – |
| – | – | 2-((3-methyl-4-(2-(2-methoxypolyethoxy)ethylthio)-2-pyridyl)methylthio)-1H-benzimidazole·hydrochloride [Example 22] | – | MIC50 (Helicobacter pylori): 0.025 µg/mL; MIC90 (Helicobacter pylori): 0.025 µg/mL |
| – | – | 2-((3-methyl-4-(2-methoxypolyethoxy)-2-pyridyl) methylsulfinyl)-1H-benzimidazole [Example 26] | 50 | – |
| 0.025 | 0.05 | COCCOCCSc1ccnc(CSc2nc3ccccc3[nH]2)c1C [Example 17, 2-((3-methyl-4-(2-(2-methoxyethoxy)ethylthio)-2-pyridyl)methylthio)-1H-benzimidazole·hydrochloride] | – | – |
| 0.012 | 0.025 | COCCOCCOCCSc1ccnc(CSc2nc3ccccc3[nH]2)c1C [Example 21, 2-((3-methyl-4-(2-(2-(2-methoxyethoxy)ethoxy)ethylthio)-2-pyridyl)methylthio)-1H-benzimidazole·hydrochloride] | – | – |
